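Cells were grown in 96-well plates and exposed to each compound for 48 hours at five concentrations; endpoints were interpolated linearly between bracketing concentrations, or set to the highest concentration if not reached. GI50 is the concentration that inhibits growth by half.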 The source made the active and inactive calls. Cut-off read from the data, not from the text of the source: active = GI50 up to about 1.1 µM and inactive = higher. A value given as a limit tells only on which side of the number the result lay.

Some test systems named below: COLO 205; EKVX; HCT-116; HL-60; HT-29; KM12; NCI-H23; NCI-H460; OVCAR-4; OVCAR-8; RXF 393; SF-268; SK-MEL-28; SK-MEL-2; TK-10; CAKI-1.
Test in all cases: NCI anticancer screen, dose series, 48 h

Turning to `CC(C)(C)C1=Nc2c(Br)cc(C(C)(C)C)cc2C(C(F)(F)F)(C(F)(F)F)O1`, the GI50 is > 100 µM (inactive) with COLO 205; > 100 µM (inactive) in the test on EKVX; 41.2 µM (inactive) in the test on HCT-116; 22.2 µM (inactive) in the test on HL-60; 57.9 µM (inactive) in the test with HT-29; > 100 µM (inactive) in the test on KM12. Further, the GI50 is > 100 µM (inactive) in the test on NCI-H23; > 100 µM (inactive) in the test with NCI-H460; > 100 µM (inactive) in the test with OVCAR-4; 80.5 µM (inactive) in the test with OVCAR-8; 22.5 µM (inactive) in the test on RXF 393; > 10 µM (inactive) in the test on SF-268. The GI50 was 32.7 µM (inactive) in the test on SK-MEL-28, > 100 µM (inactive) with SK-MEL-2 and > 100 µM (inactive) in the test on TK-10.

Regarding `COc1ccc(NC(=O)CC/C(CC(=O)C(C)(C)C)=N\NC(=O)C(N)=O)cc1`, the GI50 with CAKI-1, in the test with COLO 205, in the test on EKVX, in the test on HCT-116, in the test with HL-60 and with HT-29 was > 100 µM (inactive) in each case. In addition, the GI50 in the test on KM12, in the test with NCI-H23, with NCI-H460, in the test with OVCAR-4, with OVCAR-8 and with RXF 393 was > 100 µM (inactive) throughout. Further, the GI50 in the test with SF-268, with SK-MEL-28 and in the test with SK-MEL-2 was > 100 µM (inactive) in each case.

As for `Cc1cc2c(=O)c(C)n[nH]c2c(C#N)c1C`, the GI50 with COLO 205, with EKVX, in the test with HCT-116, with HL-60, in the test with HT-29 and in the test on NCI-H23 was > 100 µM (inactive) in each case. In addition, the GI50 is > 100 µM (inactive) in the test on NCI-H460; > 100 µM (inactive) with OVCAR-8; > 100 µM (inactive) in the test with RXF 393; > 100 µM (inactive) with SF-268; > 100 µM (inactive) in the test on SK-MEL-28; > 10 µM (inactive) with SK-MEL-2. For the same compound, the GI50 with TK-10 is > 100 µM (inactive).

For `CCc1c(OC(C)=O)c2c(NC3OCC(OC(C)=O)C(OC(C)=O)C3OC(C)=O)nc(SC)nc2oc1=O` (configuration not stated), the GI50 in the test with CAKI-1, in the test with COLO 205, in the test with EKVX, with HCT-116, in the test with HL-60 and in the test on HT-29 was > 100 µM (inactive) each time. Further, the GI50 in the test on KM12, in the test with NCI-H23, in the test with NCI-H460, in the test with OVCAR-4, with OVCAR-8 and in the test on RXF 393 was > 100 µM (inactive) throughout. The GI50 in the test with SK-MEL-2 and with TK-10 was > 100 µM (inactive) in each case.

For `C=C1C(=O)C23CC1CCC2C12CO[C@@H]4OCC(C)(CC[C@@H]1OC3=O)C42` (some centres not stated), the GI50 was 2.38 µM (inactive) in the test with CAKI-1; 2.1 µM (inactive) in the test with COLO 205; 15.5 µM (inactive) in the test with EKVX; 2.08 µM (inactive) in the test on HCT-116; 0.569 µM (active) with HL-60; 2.54 µM (inactive) with HT-29. The GI50 in the test on KM12 is 5.43 µM (inactive); in the test on NCI-H23, 6.04 µM (inactive); in the test with NCI-H460, 6.64 µM (inactive); in the test with OVCAR-8, 2.02 µM (inactive); in the test with RXF 393, 2.51 µM (inactive); in the test on SF-268, 6.32 µM (inactive). In addition, the values for the GI50 in the test on SK-MEL-28, with SK-MEL-2 and in the test with TK-10 were 2.23 µM (inactive), 11.9 µM (inactive) and 5.75 µM (inactive), respectively.

(Values after ChEMBL document CHEMBL1201862, “PubChem BioAssay data set” (2004).)
